For this test, the system named is 439559-082-T-J2-PDC spheroids viability. The test can be described thus: Anticancer human tumor 439559-082-T-J2-PDC patient-derived colon adenocarcinoma cell line growth inhibition [GQUAD]. The following applies: for viability, T/C: stronger effect = lower value. An excerpt:
DNA G-quadruplex Stabilizer Agents in Combinations in Complex Spheroids
A high-throughput screen of multi-cell type tumor spheroids was designed to identify active combinations of DNA G-quadruplex stabilizer agents and targeted small molecules. Complex spheroids include a stromal component modeled by human endothelial cells (HUVEC) and fibroblasts modeled by human mesenchymal stem cells (MSCs). The concentration ranges selected for each drug and investigational agent were based upon clinically achievable concentrations if the clinical Cmax of the agent was known.
Compounds. The drugs and investigational agents: pidnarulex (CX-5461; NSC782164), APTO-253 (NSC789042), BRACO-19 (NSC847499), peposertib (NSC802822), ceralasertib (NSC780249), elimusertib (NSC800525), camonsertib (NSC841442), AZD-1390 (NSC803789), olaparib (NSC753686), talazoparib (NSC767125), ART-558 (NSC835418), sotorasib (NSC818433), MRTX-1133 (NSC836407), SN-38 (NSC673596), topotecan (NSC609699), etoposide (NSC141540), doxorubicin (NSC123127), gemcitabine (NSC613327), 5-fluorouracil (NSC19893), paclitaxel (NSC125973), vemurafenib (NSC761431), panobinostat (NSC761190), R-306465 (JNJ-16241199; NSC773264), adavosertib (NSC754352), TP-3654 (NSC805149), carboplatin (NSC241240), KSQ-4279 (NSC840948), and staurosporine (NSC755774) were obtained from the National Cancer Institute (NCI) Developmental Therapeutics Program Chemical Repository (34). The FDA-approved anticancer drug set is available from the NCI Developmental Therapeutics Program. […] The stock solutions were prepared in dimethyl sulfoxide (DMSO, Sigma-Aldrich, St. Louis, MO, cat. D2650) at 800-fold the tested concentration and stored at -70 degrees C prior to their use. All drugs and investigational agents were tested over a range starting from a high concentration at or near the clinical Cmax and decreasing in half-log increments. If the clinical Cmax for an agent had not been determined, the highest concentration tested was 10 microM.
2.3 Cell Culture. All cells were maintained in an incubator at 37 degrees C and 5% CO2 with 95% humidity. The PDC lines were cultured according to standard operating procedures established by the NCI PDMR. All PDCs were thawed and cultured in Matrigel-coated flasks prepared with a working solution of 1X Ham's F-12 nutrient mix, without supplementation (Invitrogen, cat. 11765054), 100 U/mL penicillin-streptomycin (Invitrogen, cat. 15140122), and 2.5% Matrigel (Corning Inc., cat. 354248) for the first three passages. The 857933-349-R-J2-PDC line was cultured in 6C/Colon 1B media, which includes advanced DMEM/F-12 (Thermo Fisher Scientific, cat. 12634028), 10 mM HEPES (Thermo Fisher Scientific, cat. 15630080), 1X GlutaMAX supplement (Thermo Fisher Scientific, cat. 35050061), 0.1 mg/mL primocin (InvivoGen, cat. ant-pm-2), 10% defined fetal bovine serum, heat inactivated (HyClone Laboratories Inc., cat. SH30070.03HI), 50% L-WRN conditioned media (ATCC, cat. CRL-3276), 1.25 mM N-Acetyl-L-cysteine (Sigma-Aldrich, cat. A9165), 10 mM nicotinamide (Sigma-Aldrich, cat. N0636), 1X B-27 supplement (Thermo Fisher Scientific, cat. 17504044), 1X N-2 supplement (Thermo Fisher Scientific, cat. 17502048), 10 microM Y-27632 dihydrochloride (Tocris Bioscience, cat. 1254), and 50 ng/mL human EGF recombinant protein (Thermo Fisher Scientific, cat. PHG0311). The 485176-168-R4-J1-PDC line was cultured in Panc media, which includes all 6C/Colon 1B media components plus 100 ng/mL human FGF-10 (Thermo Fisher Scientific, cat. 100-26), 500 nM SB-431542 (Selleckchem, cat. S1067), and gastrin (Tocris, cat. 3006).
[…]

By viability, T/C is commonly meant the result in the treated group divided by that in the control group, in per cent. Usually IC50 stands for the midpoint of a concentration-inhibition curve.

Molecules are shown by their SMILES. “And” between values parts separate entries of the source, which are not always exact repeats. Identical values can stand only once.
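Also: spheroids exposed to the agents for 7 days before readout.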
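For viability, T/C in this document: percent of luminescence signal in DMSO vehicle wells taken as 100% viability.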

As for `C=CCn1c(=O)c2cnc(Nc3ccc(N4CCN(C)CC4)cc3)nc2n1-c1cccc(C(C)(C)O)n1`, the viability, T/C is 109% and 94.2% and 108% (compound 0.0316 µM); 91.1% and 90.4% and 90.3% (compound 0.1 µM); 86.3% and 89.2% and 88% (compound 0.316 µM); 104% and 78.4% and 93.7% (compound 1 µM); 110% and 62.9% and 53.1% (compound 3.16 µM); 43.5% and 20.1% and 21.9% (compound 10 µM). Moreover, the concentration for half-maximal inhibition (IC50) (curve of compound) was 8760 nM and 4360 nM and 3550 nM.

For the molecule `CC(C)(O)C1CCC(Nc2ccc3ncc(-c4cccc(C(F)(F)F)c4)n3n2)CC1` (centres undefined), the viability, T/C is, setting by setting: (compound 0.0316 µM) 100% and 101% and 106%; (compound 0.1 µM) 76.5% and 92.8% and 98.9%; (compound 0.316 µM) 60.8% and 103% and 99.9%; (compound 1 µM) 57.9% and 71.8% and 90%; (compound 3.16 µM) 53.2% and 7.83% and 15.9%; (compound 10 µM) 49.5% and 12.5% and 13.8%. In addition, the IC50 (curve of compound) is > 10000 nM and 1500 nM and 1860 nM.

With `CCCS(=O)(=O)Nc1ccc(F)c(C(=O)c2c[nH]c3ncc(-c4ccc(Cl)cc4)cc23)c1F`, the viability, T/C runs as follows: (compound 0.0316 µM) 96.1% and 95.7% and 105%; (compound 0.1 µM) 90.8% and 96.3% and 99.1%; (compound 0.316 µM) 94.7% and 102% and 103%; (compound 1 µM) 71.9% and 107% and 96.1%; (compound 3.16 µM) 53.8% and 108% and 106%; (compound 10 µM) 20.2% and 54.8% and 54.9%. Besides, the IC50 (curve of compound) is 3430 nM and > 10000 nM.

`COc1ncnc(C2CC2)c1-c1ncc2cnn(Cc3ccc(-c4nc(C(F)(F)F)cn4C(C)C)cc3)c2n1`: the viability, T/C is 100% and 106% and 101% (compound 0.0316 µM); 101% and 109% and 97.2% (compound 0.1 µM); 100% and 90.9% and 94.3% (compound 0.316 µM); 104% and 89% and 94.3% (compound 1 µM); 98.7% and 81.9% and 104% (compound 3.16 µM); 98.1% and 57.4% and 89.5% (compound 10 µM). The IC50 (curve of compound) was over 10000 nM.

For `O=C(NO)c1cnc(N2CCN(S(=O)(=O)c3ccc4ccccc4c3)CC2)nc1`, the viability, T/C is 84.3% and 92.9% and 85.8% (compound 0.0316 µM); 81.2% and 79.9% and 84.2% (compound 0.1 µM); 84% and 62.6% and 64.7% (compound 0.316 µM). Moreover, the IC50 (curve of compound) is 1760 nM and 401 nM and 438 nM.

Regarding `Cn1ncnc1[C@H]1c2n[nH]c(=O)c3cc(F)cc(c23)N[C@@H]1c1ccc(F)cc1` + CN(C)c1ccc(Nc2c3ccc(NC(=O)CCN4CCCC4)cc3nc3cc(NC(=O)CCN4CCCC4)ccc23)cc1, the IC50 by setting is: (curve of first compound, second compound 0.0316 µM) over 316 nM; (curve of first compound, second compound 0.1 µM) over 316 nM; (curve of first compound, second compound 0.316 µM) over 316 nM; (curve of first compound, second compound 1 µM) over 316 nM; (curve of first compound, second compound 3.16 µM) over 316 nM; (curve of first compound, second compound 10 µM) over 316 nM. Also, the viability, T/C by setting is: (second compound 0.0316 µM, first compound 0.000999 µM) 94.6%; (second compound 0.0316 µM, first compound 0.00316 µM) 97%; (second compound 0.0316 µM, first compound 0.00999 µM) 104%; (second compound 0.0316 µM, first compound 0.0316 µM) 96.3%; (second compound 0.0316 µM, first compound 0.0999 µM) 95.9%; (second compound 0.0316 µM, first compound 0.316 µM) 94.4%. Besides, the viability, T/C (second compound 0.1 µM, first compound 0.000999 µM) is 99.6%; the viability, T/C (second compound 0.1 µM, first compound 0.00316 µM) is 98.6%; the viability, T/C (second compound 0.1 µM, first compound 0.00999 µM) is 90.7%; the viability, T/C (second compound 0.1 µM, first compound 0.0316 µM) was 108%; the viability, T/C (second compound 0.1 µM, first compound 0.0999 µM) was 94.4%; the viability, T/C (second compound 0.1 µM, first compound 0.316 µM) is 85.3%. Besides, the viability, T/C (second compound 0.316 µM, first compound 0.000999 µM) was 99.6%; the viability, T/C (second compound 0.316 µM, first compound 0.00316 µM) was 106%; the viability, T/C (second compound 0.316 µM, first compound 0.00999 µM) is 97%; the viability, T/C (second compound 0.316 µM, first compound 0.0316 µM) is 94.4%; the viability, T/C (second compound 0.316 µM, first compound 0.0999 µM) is 93.8%; the viability, T/C (second compound 0.316 µM, first compound 0.316 µM) was 82.5%. Also, the viability, T/C is 96.8% (second compound 1 µM, first compound 0.000999 µM); 91.7% (second compound 1 µM, first compound 0.00316 µM); 96% (second compound 1 µM, first compound 0.00999 µM); 111% (second compound 1 µM, first compound 0.0316 µM); 96.8% (second compound 1 µM, first compound 0.0999 µM); 92.5% (second compound 1 µM, first compound 0.316 µM). Moreover, the viability, T/C by setting is: (second compound 3.16 µM, first compound 0.000999 µM) 101%; (second compound 3.16 µM, first compound 0.00316 µM) 102%; (second compound 3.16 µM, first compound 0.00999 µM) 89.6%; (second compound 3.16 µM, first compound 0.0316 µM) 99.2%; (second compound 3.16 µM, first compound 0.0999 µM) 98.1%; (second compound 3.16 µM, first compound 0.316 µM) 85.5%. Further, the viability, T/C is, setting by setting: (second compound 10 µM, first compound 0.000999 µM) 104%; (second compound 10 µM, first compound 0.00316 µM) 77.2%; (second compound 10 µM, first compound 0.00999 µM) 91.5%; (second compound 10 µM, first compound 0.0316 µM) 85.8%; (second compound 10 µM, first compound 0.0999 µM) 99.6%; (second compound 10 µM, first compound 0.316 µM) 85%.

The values are drawn from PubChem BioAssay AID2060510 (Molecular Pharmacology Branch, DTP, NCI, 2025).
